Data reported in patent US10526316B2, “Quinoxaline and pyridopyrazine derivatives as PI3Kβ inhibitors” (Janssen Pharmaceutica NV, priority 2015, dated 2020).

Columns and labels:
PI3Kβ = target: T1, PI3Kβ (Homo sapiens, UniProt P42338); assay: Enzyme binding assay (KINOMEscan, DiscoveRx); conditions: PIK3Cβ_h, read-out: Kd PIK3Cβ_h
T1 construct: purchased DiscoveRx Corporation, San Diego (contract service, KINOMEscan)
Summary of the method: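 Using the KINOMEscan format, the enzyme binding affinity of each compound was determined. Each value is the inhibitor binding constant, Kd (nM).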

PI3Kδ = target: T2, PI3Kδ (Homo sapiens, UniProt O00329); assay: Enzyme binding assay (KINOMEscan, DiscoveRx); conditions: PIK3Cδ_h
T2 construct: purchased DiscoveRx Corporation, San Diego (contract service, KINOMEscan)
T2 sequence (O00329 1-1044): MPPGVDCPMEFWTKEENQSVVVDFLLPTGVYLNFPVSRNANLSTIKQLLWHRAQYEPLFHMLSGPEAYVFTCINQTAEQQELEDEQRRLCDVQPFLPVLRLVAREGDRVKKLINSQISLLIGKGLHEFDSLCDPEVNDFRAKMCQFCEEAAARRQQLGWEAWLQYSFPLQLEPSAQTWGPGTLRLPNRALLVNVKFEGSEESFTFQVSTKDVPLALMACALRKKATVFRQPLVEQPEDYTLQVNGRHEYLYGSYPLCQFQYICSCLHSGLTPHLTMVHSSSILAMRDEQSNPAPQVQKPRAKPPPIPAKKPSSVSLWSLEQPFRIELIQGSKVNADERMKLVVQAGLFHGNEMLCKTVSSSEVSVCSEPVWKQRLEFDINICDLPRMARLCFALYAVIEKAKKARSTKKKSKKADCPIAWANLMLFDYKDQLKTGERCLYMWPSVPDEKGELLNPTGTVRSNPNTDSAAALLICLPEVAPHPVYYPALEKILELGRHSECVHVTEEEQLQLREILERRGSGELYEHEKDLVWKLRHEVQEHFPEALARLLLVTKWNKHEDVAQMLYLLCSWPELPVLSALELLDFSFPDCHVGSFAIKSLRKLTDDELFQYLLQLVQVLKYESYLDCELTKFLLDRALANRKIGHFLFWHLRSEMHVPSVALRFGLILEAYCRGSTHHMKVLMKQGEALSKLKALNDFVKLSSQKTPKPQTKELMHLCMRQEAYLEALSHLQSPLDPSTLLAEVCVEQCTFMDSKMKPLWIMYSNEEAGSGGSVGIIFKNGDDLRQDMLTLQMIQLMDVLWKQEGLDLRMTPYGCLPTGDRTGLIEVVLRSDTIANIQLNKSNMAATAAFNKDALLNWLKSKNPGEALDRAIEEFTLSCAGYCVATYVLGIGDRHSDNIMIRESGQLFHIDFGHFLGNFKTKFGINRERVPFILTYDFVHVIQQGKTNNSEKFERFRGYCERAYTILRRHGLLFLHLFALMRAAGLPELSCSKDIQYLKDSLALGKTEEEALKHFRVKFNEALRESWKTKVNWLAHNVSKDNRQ
Summary of the method: (§1)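 Uses KINOMEscan technology to determine binding affinity toward the kinase enzymes.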

kinase enzymes [1] = target: T3, kinase enzymes (Homo sapiens, UniProt P42345); assay: Enzyme binding assay (KINOMEscan, DiscoveRx), further kinases of Table A; conditions: MTOR_h
T3 construct: purchased DiscoveRx Corporation, San Diego (contract service, KINOMEscan)
Summary of the method: as §1

kinase enzymes [2] = target: T4, kinase enzymes (Homo sapiens, UniProt P42336); assay: as above; conditions: PIK3Cα_h
T4 construct: purchased DiscoveRx Corporation, San Diego (contract service, KINOMEscan)
Summary of the method: as §1

kinase enzymes [3] = target: T5, kinase enzymes (Homo sapiens, UniProt P48736); assay: as above; conditions: PIK3Cγ_h
T5 construct: purchased DiscoveRx Corporation, San Diego (contract service, KINOMEscan)
Summary of the method: as §1

[4] = tested on: Akt phosphorylated at Thr308 in PC-3 cells; assay: Cellular assay: phosphorylation of Akt at Thr308 in PC-3 cells (MSD ELISA); format: cell-based; conditions: Homo sapiens, PC-3, 1 h, PC-3 cells, 60 min compound incubation, MSD ELISA; read-out: IC50 pAkt_Thr308
Summary of the method: (§2)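 PC-3 cells were exposed to compound or 0.3% DMSO for 60 min at 37° C, 5% CO2, then lysed in ice-cold buffer. Phospho-Akt was captured on site-specific antibody-coated plates and detected with Sulfo-tag anti-total Akt by electrochemiluminescence. IC50 values came from five-concentration response curves.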

[5] = tested on: Akt phosphorylated at Ser473 in PC-3 cells; assay: Cellular assay: phosphorylation of Akt at Ser473 in PC-3 cells (MSD ELISA); format: cell-based; conditions: Homo sapiens, PC-3, 1 h, PC-3 cells, 60 min compound incubation, MSD ELISA; read-out: IC50 pAkt_S473
Summary of the method: as §2

T5 sequence (P48736 whole entry): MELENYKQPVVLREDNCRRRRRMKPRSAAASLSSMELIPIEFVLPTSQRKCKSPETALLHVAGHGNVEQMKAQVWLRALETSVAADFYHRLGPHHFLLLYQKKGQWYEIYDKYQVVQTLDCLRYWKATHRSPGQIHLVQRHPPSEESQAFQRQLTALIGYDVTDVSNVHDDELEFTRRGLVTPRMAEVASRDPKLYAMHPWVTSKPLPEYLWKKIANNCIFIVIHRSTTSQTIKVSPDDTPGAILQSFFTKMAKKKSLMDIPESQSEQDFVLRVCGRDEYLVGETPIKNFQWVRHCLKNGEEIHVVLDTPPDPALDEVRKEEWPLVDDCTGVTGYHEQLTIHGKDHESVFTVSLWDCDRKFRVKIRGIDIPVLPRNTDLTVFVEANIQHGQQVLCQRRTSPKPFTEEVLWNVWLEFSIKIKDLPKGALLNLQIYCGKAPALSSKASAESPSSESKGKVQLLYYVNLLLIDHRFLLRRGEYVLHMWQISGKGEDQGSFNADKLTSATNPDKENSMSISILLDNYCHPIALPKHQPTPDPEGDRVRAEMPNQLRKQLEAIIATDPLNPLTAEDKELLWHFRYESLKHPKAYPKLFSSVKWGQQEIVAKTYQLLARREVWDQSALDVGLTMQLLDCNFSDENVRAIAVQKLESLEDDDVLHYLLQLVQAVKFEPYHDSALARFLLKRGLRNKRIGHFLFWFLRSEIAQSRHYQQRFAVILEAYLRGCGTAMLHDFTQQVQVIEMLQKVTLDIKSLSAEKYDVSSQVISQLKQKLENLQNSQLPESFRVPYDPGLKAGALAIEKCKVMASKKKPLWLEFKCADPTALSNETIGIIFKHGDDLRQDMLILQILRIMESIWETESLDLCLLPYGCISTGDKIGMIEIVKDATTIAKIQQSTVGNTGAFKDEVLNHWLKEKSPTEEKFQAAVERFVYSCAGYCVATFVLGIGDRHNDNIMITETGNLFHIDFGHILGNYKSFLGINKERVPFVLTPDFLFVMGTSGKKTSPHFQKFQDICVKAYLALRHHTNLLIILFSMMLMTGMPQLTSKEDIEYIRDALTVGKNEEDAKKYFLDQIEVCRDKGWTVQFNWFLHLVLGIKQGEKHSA
T4 sequence (P42336 whole entry): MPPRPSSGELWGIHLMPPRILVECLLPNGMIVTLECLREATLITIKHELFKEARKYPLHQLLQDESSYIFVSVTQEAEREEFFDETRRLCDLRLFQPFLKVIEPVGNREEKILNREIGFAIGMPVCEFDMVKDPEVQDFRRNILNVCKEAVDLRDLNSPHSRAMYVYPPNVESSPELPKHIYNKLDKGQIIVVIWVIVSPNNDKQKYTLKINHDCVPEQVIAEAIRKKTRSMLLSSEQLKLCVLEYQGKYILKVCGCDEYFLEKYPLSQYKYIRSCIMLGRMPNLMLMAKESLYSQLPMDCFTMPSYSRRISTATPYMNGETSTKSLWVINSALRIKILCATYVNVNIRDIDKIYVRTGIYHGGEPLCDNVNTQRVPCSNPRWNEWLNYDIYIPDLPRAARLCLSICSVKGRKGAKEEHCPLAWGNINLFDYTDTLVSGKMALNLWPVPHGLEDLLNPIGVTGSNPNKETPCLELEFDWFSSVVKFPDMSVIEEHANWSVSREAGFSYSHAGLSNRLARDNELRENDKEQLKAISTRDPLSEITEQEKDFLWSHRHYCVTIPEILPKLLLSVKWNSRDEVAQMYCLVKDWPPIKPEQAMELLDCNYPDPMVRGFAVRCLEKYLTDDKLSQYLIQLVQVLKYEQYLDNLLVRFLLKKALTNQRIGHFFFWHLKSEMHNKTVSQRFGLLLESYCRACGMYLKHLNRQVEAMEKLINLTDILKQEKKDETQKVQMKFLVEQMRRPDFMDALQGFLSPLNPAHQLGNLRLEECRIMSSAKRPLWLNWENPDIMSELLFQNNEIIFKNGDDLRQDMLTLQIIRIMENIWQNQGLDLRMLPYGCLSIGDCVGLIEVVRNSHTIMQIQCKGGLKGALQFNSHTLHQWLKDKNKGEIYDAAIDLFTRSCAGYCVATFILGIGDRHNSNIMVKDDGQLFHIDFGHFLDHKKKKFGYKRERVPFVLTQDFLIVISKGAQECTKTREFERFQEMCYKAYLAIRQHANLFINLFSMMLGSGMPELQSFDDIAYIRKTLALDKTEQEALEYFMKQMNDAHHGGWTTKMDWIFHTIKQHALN
T1 sequence (P42338 whole entry): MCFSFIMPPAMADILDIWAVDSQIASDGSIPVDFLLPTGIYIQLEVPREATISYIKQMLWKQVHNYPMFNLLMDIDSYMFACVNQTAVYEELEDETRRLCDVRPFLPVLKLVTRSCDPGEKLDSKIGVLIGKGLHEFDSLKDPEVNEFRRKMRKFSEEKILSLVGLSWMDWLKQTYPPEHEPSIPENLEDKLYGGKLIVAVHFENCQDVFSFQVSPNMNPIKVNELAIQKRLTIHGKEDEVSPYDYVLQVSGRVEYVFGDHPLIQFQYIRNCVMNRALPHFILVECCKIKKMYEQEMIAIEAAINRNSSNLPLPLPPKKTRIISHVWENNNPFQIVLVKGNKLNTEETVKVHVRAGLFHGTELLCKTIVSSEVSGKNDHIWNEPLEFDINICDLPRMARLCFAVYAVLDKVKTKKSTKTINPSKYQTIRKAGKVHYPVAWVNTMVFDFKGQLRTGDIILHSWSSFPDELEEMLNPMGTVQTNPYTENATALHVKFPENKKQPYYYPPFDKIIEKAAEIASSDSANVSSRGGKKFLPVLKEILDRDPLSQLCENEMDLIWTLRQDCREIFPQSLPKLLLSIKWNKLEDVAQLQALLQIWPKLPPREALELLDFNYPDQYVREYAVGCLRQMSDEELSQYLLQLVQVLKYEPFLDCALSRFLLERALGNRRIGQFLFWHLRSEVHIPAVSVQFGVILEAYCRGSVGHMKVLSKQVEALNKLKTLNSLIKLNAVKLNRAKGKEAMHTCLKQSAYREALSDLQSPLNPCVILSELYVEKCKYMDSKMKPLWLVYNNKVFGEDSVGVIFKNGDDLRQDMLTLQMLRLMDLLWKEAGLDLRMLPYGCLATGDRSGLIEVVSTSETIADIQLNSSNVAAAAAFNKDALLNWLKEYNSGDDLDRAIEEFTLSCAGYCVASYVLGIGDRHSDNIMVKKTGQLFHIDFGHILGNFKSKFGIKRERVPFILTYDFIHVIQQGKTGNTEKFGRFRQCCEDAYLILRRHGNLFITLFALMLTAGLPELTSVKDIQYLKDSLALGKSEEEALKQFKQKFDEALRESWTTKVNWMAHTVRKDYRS

Structure (SMILES) | Kd (PI3Kβ) [µM] | Kd (PI3Kδ) [µM] | Kd (kinase enzymes [1]) [µM] | Kd (kinase enzymes [2]) [µM] | Kd (kinase enzymes [3]) [µM] | IC50 [4] [µM] | IC50 [5] [µM] | melting point [°C]
CC(Nc1cc(Cl)cc(Cl)c1)c1cc(C(=O)N2CCOCC2)cc2ncc(N3CCOCC3)nc12 (stereo not drawn) [Compound 133] | 0.003 | 0.263 | > 30.2 | 5.75 | 26.3 | 0.032 | 0.059 | 80
COc1cc(NC(C)c2cc(C(=O)N3CCOCC3)cc3ncc(N4CCOCC4)nc23)cc(OC)c1 (stereo not drawn) [Compound 134] | 0.087 | 6.31 | > 30.2 | > 30.2 | > 30.2 | > 0.513 | > 0.513 | 80
CC(Sc1ccccc1)c1cc(C(=O)N(C)C)cc2ncc(N3CCOCC3)nc12 (stereo not drawn) [Compound 135] | 0.195 | 3.8 | 11.2 | 10 | 17.4 | > 0.513 | > 0.513 | 144
CC1CN(c2cnc3cc(C(=O)N(C)C)cc(C(C)Nc4cccc(F)c4)c3n2)CCO1 (stereo not drawn) [Compound 136] | 0.003 | 0.355 | 15.1 | 2.34 | 5.13 | 0.065 | 0.178 | 184
CCN1CCN(C(=O)c2cc(C3CCCN3c3cc(F)cc(F)c3)c3nc(N4CCOCC4)cnc3c2)CC1 (stereo not drawn) [Compound 142] | 0.0005 | 0.059 | > 30.2 | 0.209 | 0.741 | 0.007 | 0.01 | 80
CCN1CCN(C(=O)c2cc(C(C)Nc3cc(F)cc(F)c3)c3nc(N4CCOCC4)cnc3c2)CC1 (stereo not drawn) [Compound 143] | 0.002 | 0.389 | > 30.2 | 2.82 | 9.55 | 0.03 | 0.102 | 80
CC(Nc1cc(F)cc(F)c1)c1cc(C(=O)N2CCN(C)CC2)cc2ncc(N3CCOCC3)nc12 (stereo not drawn) [Compound 144] | 0.002 | 0.437 | > 30.2 | 1.74 | 5.62 | 0.028 | 0.059 | 80
CC(Nc1cc(F)cc(F)c1)c1cc(C(=O)N(C)CCO)cc2ncc(N3CCOCC3)nc12 (stereo not drawn) [Compound 145] | 0.001 | 0.102 | 23.4 | 0.537 | 1.86 | 0.009 | ~0.032 | 80
CC(Nc1cc(F)cc(Cl)c1)c1cc(C(=O)N2CCOCC2)cc2ncc(N3CCOCC3)nc12 (stereo not drawn) [Compound 146] | 0.002 | 0.933 | > 30.2 | 1.91 | 8.13 | 0.038 | 0.083 | 80
CNCCNC(=O)c1cc(C(C)Nc2cc(F)cc(Cl)c2)c2nc(N3CCOCC3)cnc2c1 (stereo not drawn) [Compound 147] | 0.0004 | 0.129 | > 30.2 | 0.776 | 1.15 | 0.006 | 0.01 | 80
CC(Nc1cc(F)cc(F)c1)c1cc(C(=O)NCCOCCN)cc2ncc(N3CCOCC3)nc12 (stereo not drawn) [Compound 149] | 0.002 | 0.398 | > 30.2 | 2.95 | 2.34 | 0.138 | 0.251 | 80
CC(Nc1ccccc1)c1cc(C(=O)N(C)C)cc2ncc(N3CCOCC3)nc12 (stereo not drawn) [Compound 150] | 0.003 | 0.501 | > 30.2 | 2.88 | 3.72 | 0.091 | 0.138 | 110
CC(Oc1ccccc1)c1cc(C(=O)N(C)C)cc2ncc(N3CCOCC3)nc12 (stereo not drawn) [Compound 151] | 0.008 | 0.813 | > 30.2 | 3.63 | 8.71 | 0.066 | 0.49 | 80
CC(Nc1cc(F)cc(F)c1)c1cncc2ncc(N3CCOCC3)nc12 (stereo not drawn) [Compound 153] | 0.008 | 1.17 | 16.2 | 5.37 | 2.69 | 0.316 | 0.316 | 90
CC(Nc1cccc(C#N)c1)c1cc(C(=O)N(C)C)cc2ncc(N3CCOCC3)nc12 (stereo not drawn) [Compound 155] | 0.006 | 0.759 | > 30.2 | 2.14 | 6.61 | 0.339 | 0.437 | 186
CC(Nc1cc(F)cc(F)c1)c1cc(CNCC(F)F)cc2ncc(N3CCOCC3)nc12 (stereo not drawn) [Compound 164] | 0.004 | 1.1 | > 30.2 | 2.4 | 13.8 | 0.071 | 0.145 | 116
CC(Nc1cc(F)cc(F)c1)c1cc(Br)cc2ncc(N3CCOCC3)nc12 (stereo not drawn) [Compound 167] | 0.026 | 7.76 | > 30.2 | 17.4 | 12.9 | ~0.427 | > 0.513 | 80
CC(Nc1cc(F)cc(F)c1)c1cc(CN2CCOCC2)cc2ncc(N3CCOCC3)nc12 (stereo not drawn) [Compound 168] | 0.017 | 1.86 | > 30.2 | 3.63 | > 30.2 | 0.112 | 0.214 | 165
